Tests used:
AKT3 = molecular target: T1, AKT3 (Homo sapiens, UniProt Q9Y243); test: AKT Kinase Assay (IMAP fluorescent polarisation) vs AKT3; type: biochemical; settings: activated AKT3, FAM Crosstide substrate
T1 construct: purchased SignalChem
In short: (§1)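 IC50 values came from non-linear regression of % inhibition relative to vehicle, measured by IMAP fluorescence polarisation (485/528 nm) after a 1 h room-temperature reaction of FAM-Crosstide and ATP. Each activated isoform was first exposed to compound for 45 min across fourteen half-log doses.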

AKT1 = molecular target: T2, AKT1 (Homo sapiens, UniProt P31749); test: AKT Kinase Assay (IMAP fluorescent polarisation) vs AKT1; type: biochemical; settings: activated AKT1, FAM Crosstide substrate
T2 construct: purchased SignalChem
In short: as §1

AKT phosphorylation = test: Phosphorylation status of AKT/PI3K pathway members via western blotting; type: cell-based; settings: for 48 h at 10 μM
Description: Analysis of Compound Effects on AKT Signalling Pathways
Phosphorylation status of various members of the AKT/PI3K pathway were investigated via western blotting.
Materials Required for this Assay: 20× Running buffer (Invitrogen); Rainbow marker ladder (GE Healthcare); Reducing buffer (Invitrogen); 20× Transfer buffer (Invitrogen); 4-12% Bis-Tris Gels (Invitrogen); Filter paper (Whatman); Nitrocellulose (Amersham); ECL plus detection reagents (GE Healthcare); Radiographic film (Kodak); Biorad Protein determination reagent (Biorad); AKT pathway signalling antibodies (Cell Signalling)
LnCaP and PC3 cell lines were washed, detached and re-suspended in fresh medium. They were seeded in 90 mm^2 dishes and incubated overnight ([…]/5% CO2) to allow adherence. […]
The medium was removed and the cells placed on ice and washed in PBS. […] The resultant supernatant was assayed for protein content using the Bradford method (Biorad) and equal quantities of protein calculated and heated in sample reducing buffer to 95° C. for ten minutes. […]
The membranes were used to determine difference in total AKT, pSer473 AKT, pGSK3β and total GSK3β (all sourced from Cell Signalling). […] The membranes were washed three times in PBS and incubated with the respective secondary antibodies (Sigma Aldrich) for two hours and the proteins were detected using ECL plus detection reagents (GE Healthcare).

[1] = tested on: PC3 and/or LnCaP cell lines; test: In vitro cell proliferation assay (Cell Titre Glo); type: cell-based; settings: Homo sapiens, 72 hours, read-out: inhibition of proliferation IC50
Procedure: Testing of the compounds was also performed using in vitro cell proliferation assays:
Cell Titre Glo (Promega) is a highly sensitive homogeneous reagent used to determine the viability of cells. The reagent uses a stable form of luciferase to measure ATP as an output of viability. The luminescent values generated in the assay are directly proportional to the number of viable cells in your assay.
The following materials were used: White, clear bottomed 96 well assay plates (Costar); Cell titre Glo reagents; LnCaP (ECACC) cells grown in RPMI medium (Invitrogen) supplemented with 10 mM HEPES (Invitrogen), 1 mM Sodium pyruvate (Invitrogen), 2 mM L-Glutamine (Invitrogen) and 10% Foetal calf serum (Invitrogen); PC3 (ECACC) cells grown in RPMI medium supplemented with 10% Foetal calf serum (Invitrogen); Trypsin (Invitrogen); PBS (Invitrogen); Biotek Synergy 4 Hybrid Plate reader; 96 well plate shaker (Stuart SSL5); Eppendorf 5414 desk-top centrifuge; Beckman Coulter cell counter Z1 single threshold system.
Prostate cell lines, PC3 and LnCaP, were washed, detached and re-suspended in their respective fresh media. The cells were pelleted by centrifugation (Eppendorf 5414) and spent supernatant discarded. The cells were re-suspended by vortex mixing, counted and seeded into clear bottom white 96 well plates at a density of 5000 cells per well. The cells were incubated (Sanyo) overnight at 37° C. ([…]), and next day treated with increasing concentrations of test compound formulated in fresh medium. The plates were returned to the incubator for 72 hours. […]
The cell viability post compound treatment was determined by the luminescent intensity emitted from the drug treated wells in the plate. In brief, the assay plate was placed in the Biotex Synergy 4 Hybrid plate reader and the luminescence read in each well. The compound treated wells were compared to vehicle treated wells and the % inhibition of cell viability calculated.
The data was analysed using GraphPad Prism, with IC50 values generated using non-linear regression of the data set.

AKT2 = molecular target: T3, AKT2 (Homo sapiens, UniProt P31751); test: AKT Kinase Assay (IMAP fluorescent polarisation) vs AKT2; type: biochemical; settings: activated AKT2, FAM Crosstide substrate
T3 construct: purchased SignalChem
In short: as §1

T2 sequence (P31749 whole entry): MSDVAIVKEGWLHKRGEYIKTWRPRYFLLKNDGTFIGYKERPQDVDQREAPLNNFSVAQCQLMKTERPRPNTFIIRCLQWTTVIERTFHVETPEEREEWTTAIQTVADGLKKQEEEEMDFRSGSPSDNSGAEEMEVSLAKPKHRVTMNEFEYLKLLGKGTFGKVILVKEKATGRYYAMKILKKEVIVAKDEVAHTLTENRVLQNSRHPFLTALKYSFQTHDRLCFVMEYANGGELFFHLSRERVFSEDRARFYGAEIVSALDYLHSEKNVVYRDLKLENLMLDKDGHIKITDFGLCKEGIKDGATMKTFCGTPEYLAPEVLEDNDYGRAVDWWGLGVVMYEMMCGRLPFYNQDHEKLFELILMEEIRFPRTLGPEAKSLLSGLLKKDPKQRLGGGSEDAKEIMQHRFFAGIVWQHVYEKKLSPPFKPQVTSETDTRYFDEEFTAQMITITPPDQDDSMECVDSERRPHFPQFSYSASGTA
T1 sequence (Q9Y243 whole entry): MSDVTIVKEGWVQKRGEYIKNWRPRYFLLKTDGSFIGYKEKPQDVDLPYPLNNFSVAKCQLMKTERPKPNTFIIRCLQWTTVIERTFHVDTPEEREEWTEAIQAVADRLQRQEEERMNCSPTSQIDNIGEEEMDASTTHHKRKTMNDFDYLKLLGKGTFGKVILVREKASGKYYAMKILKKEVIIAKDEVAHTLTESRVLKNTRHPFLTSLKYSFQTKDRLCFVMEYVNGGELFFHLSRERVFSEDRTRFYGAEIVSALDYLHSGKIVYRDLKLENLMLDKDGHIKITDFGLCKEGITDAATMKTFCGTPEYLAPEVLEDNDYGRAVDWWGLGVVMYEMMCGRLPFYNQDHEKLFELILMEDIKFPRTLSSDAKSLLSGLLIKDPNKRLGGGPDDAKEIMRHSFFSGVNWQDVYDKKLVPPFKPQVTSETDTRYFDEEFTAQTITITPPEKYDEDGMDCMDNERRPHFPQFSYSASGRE
T3 sequence (P31751 whole entry): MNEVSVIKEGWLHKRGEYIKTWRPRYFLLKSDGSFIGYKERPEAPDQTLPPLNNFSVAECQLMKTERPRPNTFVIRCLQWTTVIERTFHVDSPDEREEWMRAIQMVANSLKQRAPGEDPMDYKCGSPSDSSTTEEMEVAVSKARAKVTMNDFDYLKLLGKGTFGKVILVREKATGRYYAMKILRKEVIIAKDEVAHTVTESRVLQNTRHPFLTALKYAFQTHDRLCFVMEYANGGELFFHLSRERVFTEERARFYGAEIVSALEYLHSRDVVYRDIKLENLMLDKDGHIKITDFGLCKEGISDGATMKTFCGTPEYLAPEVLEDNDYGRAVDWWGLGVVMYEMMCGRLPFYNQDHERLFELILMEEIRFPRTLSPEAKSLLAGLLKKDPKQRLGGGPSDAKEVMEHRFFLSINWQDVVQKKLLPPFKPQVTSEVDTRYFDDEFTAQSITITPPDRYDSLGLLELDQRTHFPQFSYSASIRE

Cl.NC1(c2ccc(-c3c(-c4ccccc4)oc4c(=O)[nH]ccc4c3=O)cc2)CCC1 [Example 40, 3-[4-(1-Amino-cyclobutyl)-phenyl]-2-phenyl-7H-pyrano[2,3-c]pyridine-4,8-dione hydrochloride]
IC50 (AKT3): 1000 to 10000 nM | IC50 (AKT1): ≤ 1000 nM | inhibition of AKT phosphorylation (AKT phosphorylation): inhibition of AKT phosphorylation | IC50 [1]: < 10000 nM | IC50 (AKT2): ≤ 1000 nM

— patent US8546376B2, “Pharmaceutical compounds” (Almac Discovery Limited, priority 2009, dated 2013)
